Where “and” joins values, the source holds several entries; their conditions need not be identical. Equal values may be shown once. Where a name gives a salt, the structure may show the parent alone.
tested on: ovarian cancer cells with (OVCAR8, OVCAR4) or without (OVSAHO, CAOV3) MYC-HSF1 amplification; assay: Epigenetic inhibitor drug screen, cell viability (Cell Titer Blue); format: cell-based; settings: not given

Point of comparison: `C/C(O)=C(\C#N)C(=O)Nc1cc(Br)ccc1Br` [LFM-A13], “Non Amp - AMP (POC) 10 uM” value 5.442 POC. Against it:
- CCS(=O)(=O)Nc1ccc2c(c1)/C(=C(/Nc1ccc(CN3CCCCC3)cc1)c1ccccc1)C(=O)N2 [Hesperadin] — higher, 39.85 POC
- [NH2][Pt]1([NH2])[O]CC(=O)[O]1 [Nedaplatin] — lower, −10.66 POC
- O=C(CCCCCCC(=O)NO)NO [SBHA] — lower, 0.3146 POC
- O=C(NCC(=O)N1CCCC1)Nc1ccc2cnccc2c1 [SGC707] — lower, 4.518 POC

same assay, conditions: 10 uM, 48 hrs; average relative cell viability (vs 1% DMSO) of non-amplified cells (OVSAHO, CAOV3) minus that of MYC-HSF1 amplified cells (OVCAR8, OVCAR4); positive = greater response in amplified cells

Point of comparison: `CCCCC[C@H](O)CC(=O)CCc1ccc(O)c(OC)c1` [6-gingerol], “Non Amp - AMP (POC) 10 uM” value −6.674 POC. Against it:
- Cc1noc(C)c1-c1ccc(-c2nc3cnccn3c2NC(C)(C)C)cc1 [UMB-32] — higher, −3.692 POC
- COc1ccc(S(=O)(=O)ON=C2C=C(C)C(=O)C(C)=C2)cc1 [L002] — lower, −39.83 POC
- CCN(CC)C(=O)/C(C#N)=C/c1cc(O)c(O)c([N+](=O)[O-])c1 [Entacapone] — lower, −6.777 POC
- COc1cc2nc(N3CCCN(C)CC3)nc(NC3CCN(Cc4ccccc4)CC3)c2cc1OC [BIX 01294] — higher, −4.372 POC
- CO[C@@H]1[C@H](N(C)C(=O)c2ccccc2)C[C@H]2O[C@]1(C)n1c3ccccc3c3c4c(c5c6ccccc6n2c5c31)C(=O)NC4 [Midostaurin (PKC412), Midostaurin] — lower, −9.891 POC
- N#Cc1ccc(OC2CCC(NC(=O)CCSc3nc4ccccc4c(=O)[nH]3)CC2)cc1 (stereo not shown) [Tankyrase Inhibitors (TNKS) 49] — lower, −7.406 POC
- CN(C)Cc1ccc(S(=O)(=O)n2ccc(/C=C/C(=O)NO)c2)cc1 [Resminostat (hydrochloride), Resminostat] — higher, 36.33 POC
- Cc1cc(C)nc(SCC(=O)Nc2ncc(Cc3cccc4ccccc34)s2)n1 [SirReal2] — higher, −3.472 POC
- CN1CCN(c2nc(C3=C(c4c[nH]c5ccccc45)C(=O)NC3=O)c3ccccc3n2)CC1 [Sotrastaurin (AEB071), Sotrastaurin] — higher, 10.63 POC
- O=C(CCCCCCNC(=O)c1cnc(N(c2ccccc2)c2ccccc2Cl)nc1)NO [ACY-241] — higher, 35.17 POC
- COc1cc2c(NC3CCN(C)CC3)nc(N3CCCN(C)CC3)nc2cc1OCCOCCN(C)C [UNC0321 (trifluoroacetate salt)] — higher, 0.4275 POC
- O=C(CCCCCCNC(=O)c1cnc(N(c2ccccc2)c2ccccc2)nc1)NO [Rocilinostat (ACY-1215), Rocilinostat] — higher, 32.23 POC
- Cn1cc(-c2ccc(S(=O)(=O)n3ccc(/C=C/C(=O)Nc4ccccc4N)c3)cc2)cn1 [4SC-202] — higher, 15.57 POC
- CC(=O)SCC(=O)c1ccc(NS(=O)(=O)c2ccc(OCCCN(C)C)cc2)nc1 [KD 5170] — higher, 12.43 POC
- CCN(CC)CCNC(=O)c1ccc(N)cc1 [Procainamide HCl] — higher, 4.095 POC
- Cc1ccc(NC(=O)CCCCCC(=O)Nc2ccccc2N)cc1 [TC-H 106] — higher, 8.223 POC
- COc1cc(-c2cn(C)c(=O)c3cnccc23)c(OC)cc1CN(C)C [BI-9564] — higher, 11 POC
- Nc1ccccc1NC(=O)c1cnccn1 [BG45] — higher, 25.74 POC
- CCCCCCCCCC(=O)N[C@@H](Cc1c[nH]c2ccccc12)C(=O)N[C@H](CC(N)=O)C(=O)N[C@@H](CC(=O)O)C(=O)N[C@@H]1C(=O)NCC(=O)N[C@@H](CCCN)C(=O)N[C@@H](CC(=O)O)C(=O)N[C@H](C)C(=O)N[C@@H](CC(=O)O)C(=O)NCC(=O)N[C@H](CO)C(=O)N[C@@H]([C@H](C)CC(=O)O)C(=O)N[C@@H](CC(=O)c2ccccc2N)C(=O)O[C@@H]1C [Daptomycin] — higher, 3.207 POC
- O=C([O-])CCCc1ccccc1.[Na+] [Sodium 4-phenylbutyrate] — higher, 6.103 POC
- NC(=O)c1cccc(NC(=O)/C=C/c2c[nH]c3ccccc23)c1 [RSC-133] — higher, 26.08 POC
- N[C@@H]1CCCN(c2c(/C=C3\SC(=O)NC3=O)cccc2-c2ccccc2)C1 [AZD1208] — higher, 10.38 POC
- O=C(c1cc(Cc2n[nH]c(=O)c3ccccc23)ccc1F)N1CCN(C(=O)C2CC2)CC1 [Olaparib (AZD2281, Ku-0059436), Olaparib] — higher, 3.527 POC
- O=[N+]([O-])c1ccc(Sc2cccc[n+]2[O-])c2nonc12 [NSC228155] — higher, 4.767 POC
- C[C@H](NC(=O)CCc1nc2ccccc2c(=O)[nH]1)c1ccccc1 [ME0328] — higher, 15.81 POC
- CCCC(CCC)C(=O)[O-].[Na+] [Valproic acid sodium salt] — lower, −19.36 POC
- CCC(CC)n1ccc2c(C(=O)NCc3c(C)cc(C)[nH]c3=O)cc(C#N)cc21 [EI1] — higher, 15.27 POC
- CCc1cccc(CC)c1NC(=O)N1Cc2n[nH]c(NC(=O)c3ccc(N4CCN(C)CC4)cc3)c2C1 [PHA-680632] — lower, −11.28 POC
- COC(=O)CNC(=O)C(=O)OC [DMOG] — lower, −8.654 POC
- c1nc2nc(Nc3ccc(N4CCOCC4)cc3)nc(NC3CCCCC3)c2[nH]1 [Reversine] — lower, −6.769 POC
- O=C(O)CNC(=O)c1nc(Cl)c2ccccc2c1O [FG2216] — higher, −1.816 POC
- N.N.O=C([O-])C1(C(=O)[O-])CCC1.[Pt+2] [Carboplatin] — lower, −13.46 POC
- O=C(/C=C/c1ccc(O)c2c1[C@H](C(=O)O[C@H](Cc1ccc(O)c(O)c1)C(=O)O)[C@@H](c1ccc(O)c(O)c1)O2)O[C@H](Cc1ccc(O)c(O)c1)C(=O)O [Salvianolic acid B] — higher, 2.345 POC
- Cl.Clc1ccc(-c2csc(NN=C3CCCC3)n2)cc1 [CPTH2 (hydrochloride)] — higher, 6.251 POC
- CC(C)(CCCCCC(O)CCCCCC(C)(C)C(=O)O)C(=O)O [ETC-1002] — higher, −2.506 POC
- NC(=O)C1CCCc2c1[nH]c1ccc(Cl)cc21 (stereo not shown) [EX 527 (SEN0014196)] — higher, −0.5892 POC
- CN1CCC(CNc2ccc3ncc(-c4cccc(OC(F)(F)F)c4)n3n2)CC1 [SGI-1776 free base] — lower, −17.37 POC
- Cc1cc(CN2CCN(c3c(Br)cnc4nc(-c5ccc(N6CCN(C)CC6)cc5)[nH]c34)CC2)no1 [CCT137690] — higher, 9.076 POC

same assay, conditions: 10 uM, 48 hrs; average relative cell viability (vs 1% DMSO) of non-amplified cells (OVSAHO, CAOV3) minus that of MYC-HSF1 amplified cells (OVCAR8, OVCAR4); positive = greater response in amplified cells; 10 µM

Point of comparison: `CN(C)CCCNC(=O)c1ccc(-c2cc(O)c3ncccc3c2)cc1` [ML-324], “Non Amp - AMP (POC) 10 uM” value 7.484 POC. Against it:
- CC(C)Oc1ccc(-c2c[nH]cc2CN(C)CCN)cc1 [MS023 (hydrochloride)] — lower, 6.531 POC
- Fc1cc(-c2cccc3ncc(-c4cnn(C5CCNCC5)c4)nc23)cc(F)c1CN1CCOCC1 [NVP-BSK805 2HCl] — lower, −12.67 POC
- C[C@@H]1CCN(C(=O)CC#N)C[C@@H]1N(C)c1ncnc2[nH]ccc12 [Tofacitinib (CP-690550) Citrate, Tofacitinib] — lower, 3.666 POC
- CCN(c1cc(-c2ccc(CN3CCOCC3)cc2)cc(C(=O)NCc2c(C)cc(C)[nH]c2=O)c1C)C1CCOCC1 [EPZ6438] — higher, 8.683 POC
- COc1cc2c(NC3CCN(C)CC3)nc(N3CCCN(C)CC3)nc2cc1OCCCN(C)C [UNC0224] — lower, 7.132 POC
- Cc1sc2c(c1C)C(c1ccc(Cl)cc1)=N[C@@H](CC(=O)Nc1ccc(O)cc1)c1nnc(C)n1-2 [OTX015] — higher, 15.65 POC
- Nc1ccc(S(=O)(=O)NCCc2ccccc2)cc1 [C-7280948] — higher, 13.45 POC
- N#CC[C@H](C1CCCC1)n1cc(-c2ncnc3[nH]ccc23)cn1 [Ruxolitinib phosphate] — lower, 2.659 POC
- Fc1cc(-c2cccc3ncc(-c4cnn(C5CCNCC5)c4)nc23)cc(F)c1CN1CCOCC1 [NVP-BSK805] — lower, −1.371 POC
- CCCC(CCC)C(=O)O [Divalproex Sodium] — lower, −6.451 POC
- Nc1nc2nc[nH]c2c(=S)[nH]1 [6-Thioguanine] — higher, 12.09 POC

`O=C(O)c1ccc(CN2CCC(CN[C@@H]3C[C@H]3c3ccccc3)CC2)cc1` [GSK2879552] was tested, and the “Non Amp - AMP (POC) 10 uM” value was 13.47 POC and 12.35 POC.
With `CCC(CC)(NC(=O)C(C)C)C(=O)N[C@@H](CCCN=C(N)N)C(=O)NC1(C(=O)NC(c2ccc(F)cc2)c2ccc(F)cc2)CCCC1` [MM-102] the “Non Amp - AMP (POC) 10 uM” value was 10.41 POC and 6.837 POC.

same assay, conditions: 10 uM, 48 hrs; average relative cell viability (vs 1% DMSO) of non-amplified cells (OVSAHO, CAOV3) minus that of MYC-HSF1 amplified cells (OVCAR8, OVCAR4); positive = greater response in amplified cells; HCl, 10 µM

`Nc1ccn([C@@H]2O[C@H](CO)[C@@H](O)C2(F)F)c(=O)n1` [Gemcitabine HCl] was tested, and the “Non Amp - AMP (POC) 10 uM” value was 8.319 POC.

same assay, conditions: 10 uM, 48 hrs; average relative cell viability (vs 1% DMSO) of non-amplified cells (OVSAHO, CAOV3) minus that of MYC-HSF1 amplified cells (OVCAR8, OVCAR4); positive = greater response in amplified cells; listed as C7280948, 10 µM

In the case of `Nc1ccc(S(=O)(=O)NCCc2ccccc2)cc1` [C-7280948], the “Non Amp - AMP (POC) 10 uM” value was 0.5735 POC.

same assay, conditions: 10 uM, 48 hrs; average relative cell viability (vs 1% DMSO) of non-amplified cells (OVSAHO, CAOV3) minus that of MYC-HSF1 amplified cells (OVCAR8, OVCAR4); positive = greater response in amplified cells; listed as EPZ-6438, 10 µM

`CCN(c1cc(-c2ccc(CN3CCOCC3)cc2)cc(C(=O)NCc2c(C)cc(C)[nH]c2=O)c1C)C1CCOCC1` [EPZ6438] was tested, and the “Non Amp - AMP (POC) 10 uM” value was 3.862 POC.

same assay, conditions: 10 uM, 48 hrs; average relative cell viability (vs 1% DMSO) of non-amplified cells (OVSAHO, CAOV3) minus that of MYC-HSF1 amplified cells (OVCAR8, OVCAR4); positive = greater response in amplified cells; listed as ML324, 10 µM

For `CN(C)CCCNC(=O)c1ccc(-c2cc(O)c3ncccc3c2)cc1` [ML-324], the “Non Amp - AMP (POC) 10 uM” value was 4.315 POC.

same assay, conditions: 10 uM, 48 hrs; average relative cell viability (vs 1% DMSO) of non-amplified cells (OVSAHO, CAOV3) minus that of MYC-HSF1 amplified cells (OVCAR8, OVCAR4); positive = greater response in amplified cells; listed as OTX-015, 10 µM

`Cc1sc2c(c1C)C(c1ccc(Cl)cc1)=N[C@@H](CC(=O)Nc1ccc(O)cc1)c1nnc(C)n1-2` [OTX015] was tested, and the “Non Amp - AMP (POC) 10 uM” value was 2.251 POC.

same assay, conditions: 10 uM, 48 hrs; average relative cell viability (vs 1% DMSO) of non-amplified cells (OVSAHO, CAOV3) minus that of MYC-HSF1 amplified cells (OVCAR8, OVCAR4); positive = greater response in amplified cells; listed as UNC 0224, 10 µM

In the case of `COc1cc2c(NC3CCN(C)CC3)nc(N3CCCN(C)CC3)nc2cc1OCCCN(C)C` [UNC0224], the “Non Amp - AMP (POC) 10 uM” value was −1.296 POC.

Reference: patent publication US20250011881A1, “MYC-HSF1 DUAL AMPLIFICATION AS A BIOMARKER FOR CANCER TREATMENT” (The Trustees of Indiana University, priority 2023, published 2025)
